Laboratory results: patent US10865194B2, “Therapeutically active bicyclic-sulphonamides and pharmaceutical compositions” (FONDAZIONE ISTITUTO ITALIANO DI TECNOLOGIA, priority 2017, dated 2020)
pIC50: −log10 of the molar value. Like-named read-outs stand apart in the source and are kept apart here.

What was measured:
[1] = tested on: Neuro2A cells; assay: Inhibition of ROS production in Neuro2A cells (H2O2-induced, DCFH-DA fluorescence); type: cell-based; details: for Inhibition of ROS production in neuro 2A cells, 5 μM (inhibition) / inhibition at 5 µM: compound 5 μM; for Inhibition of ROS production in neuro 2A cells, 10 μM (inhibition) / inhibition at 10 µM: compound 10 μM; for inhibition at 5 µM / inhibition at 10 µM: Mus musculus, N2a; for inhibition at 5 µM: ROS induced with 0.2 mM H2O2, read-out: Inhibition of ROS production in neuro 2A cells, 5 μM (inhibition); for inhibition at 10 µM: ROS induced with 0.2 mM H2O2, read-out: Inhibition of ROS production in neuro 2A cells, 10 μM (inhibition)
Procedure: The experiments carried out to evaluate the inhibition of ROS production using the compounds of the invention were based on the method reported by Danli W. and Patricia Yotnda in Production and Detection of Reactive Oxygen Species (ROS) in Cancers, J. Vis Exp. 2011; (57):3357.
Cultured brain Neuroblastoma2A (Neuro2A) were used.
15.000 Cells were plated in a 96 well plate with black walls and transparent flat bottom in 100 μL of DMEM complete medium (including 10% fetal bovine serum, […] L-Glutamine) containing compounds at indicated concentrations or 0.5% dimethylsulfoxide (DMSO), and kept overnight at 37° C. to allow them to attach to the plate. The following day the culture medium was removed, cells were washed with 100 μl of Phosphate Buffer Saline, pH 7.4 (PBS) and loaded with 100 μL of PBS containing 10 μM of dichloro-dihydro-fluorescein diacetate (DCFH-DA) and compounds at the indicated concentrations (or DMSO 0.5%) for additional 45 min at 37° C. DCFH-DA was prepared as a 20 mM stock in (DMSO) and kept in the dark at 4° C.
ROS production was induced by exposure with 0.2 mM H2O2 dissolved in 100 μl of complete DMEM medium without phenol red. Fluorescence intensity was measured at an […] wavelengths of 485/535 nm and ROS production was monitored for 2 h, at 37° C.

[2] = biological target: T1, human NAAA (Homo sapiens, UniProt Q02083); assay: In vitro human NAAA fluorogenic assay; type: biochemical; details: enzyme-enriched lysate of HEK-293 cells stably transfected with human NAAA
T1 construct: expressed in transfected cells; host or cells: HEK-293 (stably transfected, G418 selection); enzyme-enriched lysate
T1 sequence (Q02083 126-359 limits assumed): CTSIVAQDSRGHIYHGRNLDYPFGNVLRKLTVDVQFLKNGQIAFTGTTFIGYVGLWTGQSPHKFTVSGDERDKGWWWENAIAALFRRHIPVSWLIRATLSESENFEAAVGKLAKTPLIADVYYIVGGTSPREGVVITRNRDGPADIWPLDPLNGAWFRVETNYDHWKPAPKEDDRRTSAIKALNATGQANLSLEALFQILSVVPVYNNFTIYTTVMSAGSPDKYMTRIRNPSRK
T1 sequence (Q02083 29-125 limits assumed): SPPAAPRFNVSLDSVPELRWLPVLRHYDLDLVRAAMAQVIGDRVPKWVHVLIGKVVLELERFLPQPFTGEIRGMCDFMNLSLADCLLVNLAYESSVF
Procedure: Human recombinant proteins were obtained from HEK-293 stable overexpressing NAAA cell lines. Cells were grown in Dulbecco's modified Eagle medium (DMEM) containing 10% FBS, 1% penicillin/streptomycin, 1% glutamine and 500 μg/mL G418. To obtain membrane preparation cells were scraped off with cold phosphate-buffered saline (PBS) and collected by centrifugation (300×g, 7 min, 4° C.). Cell pellet were stored at −80° C. until protein preparation.
In Vitro Human NAAA Assay
Preparation of Enzyme-Enriched Lysate (h-NAAA).
HEK-293 cells stably transfected with the human NAAA coding sequences were used as enzyme source. Cell pellets were suspended in 20 mM Tris HCl (pH 7.4) with 0.32 M sucrose, sonicated and centrifuged at 800×g for 30 min at 4° C. Supernatants were then ultracentrifuged at 12,000×g for 30 min at 4° C. Pellets were re-suspended in PBS buffer (pH 7.4) and subjected to three freeze-thaw cycles at −80° C. The suspension was finally ultracentrifuged at 105,000×g for 1 h at 4° C., supematants were collected, protein concentration was measured and samples aliquoted and stored at −80° C. until use.
The results are summarized in Table 3 as follows, wherein +: IC50>2 μM; ++: 1.0 μM<IC50<2 μM; +++: IC50<1 μM: […]

[3] = Activity h-NAAA Fluorogenic assay
[4] = read-out: Activity h-NAAA Fluorogenic assay

| SMILES | pIC50 [2, 4] | other results |
| --- | --- | --- |
| O=C(/C=C/c1ccc(O)c2c1[C@H](C(=O)O[C@H](Cc1ccc(O)c(O)c1)C(=O)O)[C@@H](c1ccc(O)c(O)c1)O2)O[C@H](Cc1ccc(O)c(O)c1)C(=O)O [Salvianolic Acid B, Salvianolic acid B, reference compound] |  | Inhibition of ROS production in neuro 2A cells (inhibition), reference at 100 μM ([1]; reference compound 100 μM, ROS induced with 0.2 mM H2O2): 100% |
| CCCCc1ccc(OC2CC3CCC(C2)N3S(=O)(=O)c2c(C)n[nH]c2C)cc1 [Example 03, (1R,3s,5S)-3-(4-Butylphenoxy)-8-[(3,5-dimethyl-1H-pyrazol-4-yl)sulfonyl]-8-azabicyclo[3.2.1]octane] |  | Inhibition of ROS production in neuro 2A cells, 5 μM (inhibition) ([1]; ROS induced with 0.2 mM H2O2): 39%; Inhibition of ROS production in neuro 2A cells, 10 μM (inhibition) ([1]; ROS induced with 0.2 mM H2O2): 136%; pIC50 [2, 3]: < 5.70 |
| Cc1n[nH]c(C)c1S(=O)(=O)N1C[C@H]2CCC[C@@H](C1)[C@H]2Oc1cnccn1 [Example 51, (1R,5S,9r)-3-((3,5-Dimethyl-1H-pyrazol-4-yl)sulfonyl)-9-(pyrazin-2-yloxy)-3-azabicyclo[3.3.1]nonane] | < 5.70 | Inhibition of ROS production in neuro 2A cells, 5 μM (inhibition) ([1]; ROS induced with 0.2 mM H2O2): 0%; Inhibition of ROS production in neuro 2A cells, 10 μM (inhibition) ([1]; ROS induced with 0.2 mM H2O2): 21% |
| CCCCc1cnc(OC2CC3CCC(C2)N3S(=O)(=O)c2c(C)n[nH]c2C)cn1 [Example 40, (1R,3r,5S)-8-[(3,5-Dimethyl-1H-pyrazol-4-yl)sulfonyl]-3-[5-butylpyrazin-2-yl]oxy-8-azabicyclo[3.2.1]octane] | > 6.00 | inhibition at 5 µM [1]: 19%; inhibition at 10 µM [1]: 86% |
| Cc1n[nH]c(C)c1S(=O)(=O)N1C2CCC1CC(Oc1ccc(C#N)cc1)C2 [Example 08, (1R,3r,5S)-3-(4-Cyanophenoxy)-8-[(3,5-dimethyl-1H-pyrazol-4-yl)sulfonyl]-8-azabicyclo[3.2.1]octane] | > 6.00 | Inhibition of ROS production in neuro 2A cells, 5 μM (inhibition) ([1]; ROS induced with 0.2 mM H2O2): 0%; Inhibition of ROS production in neuro 2A cells, 10 μM (inhibition) ([1]; ROS induced with 0.2 mM H2O2): 77% |
| CCCCc1ccc(OC2CC3CCC(C2)N3S(=O)(=O)c2c(C)n[nH]c2C)cc1 [Example 54, (1R,3r,5S)-3-(4-Butylphenoxy)-8-[(3,5-dimethyl-1H-pyrazol-4-yl)sulfonyl]-8-azabicyclo[3.2.1]octane] |  | Inhibition of ROS production in neuro 2A cells, 5 μM (inhibition) ([1]; ROS induced with 0.2 mM H2O2): 17%; Inhibition of ROS production in neuro 2A cells, 10 μM (inhibition) ([1]; ROS induced with 0.2 mM H2O2): 114%; pIC50 [2, 3]: > 6.00 |
| Cc1n[nH]c(C)c1S(=O)(=O)N1C2CCC1CC(Oc1ccc(C#N)cc1)C2 [Example 09, (1R,3s,5S)-3-(4-Cyanophenoxy)-8-[(3,5-dimethyl-1H-pyrazol-4-yl)sulfonyl]-8-azabicyclo[3.2.1]octane] | < 5.70 | Inhibition of ROS production in neuro 2A cells, 5 μM (inhibition) ([1]; ROS induced with 0.2 mM H2O2): 35%; Inhibition of ROS production in neuro 2A cells, 10 μM (inhibition) ([1]; ROS induced with 0.2 mM H2O2): 56% |
| CCCCc1ccc(OC2CC3CCC(C2)N3S(=O)(=O)c2c(C)noc2C)cc1 [Example 15, 4-[[(1R,3r,5S)-3-(4-Butylphenoxy)-8-azabicyclo[3.2.1]octan-8-yl]sulfonyl]-3,5-dimethyl-isoxazole] | < 5.70 | inhibition at 5 µM [1]: 0%; inhibition at 10 µM [1]: 84% |
| CCN(CC)Cc1ccc(OC2CC3CCC(C2)N3S(=O)(=O)c2c(C)n[nH]c2C)cc1 [Example 32, (1R,3r,5S)-3-[4-Diethylaminomethyl-phenoxy]-8-[(3,5-dimethyl-1H-pyrazol-4-yl)sulfonyl]-8-azabicyclo[3.2.1]octane] | < 5.70 |  |
| Cc1n[nH]c(C)c1S(=O)(=O)N1C2CCC1CC(Oc1ccc(C(F)(F)F)cc1)C2 [Example 29, (1R,3r,5S)-3-(4-Trifluoromethyl-phenoxy)-8-[(3,5-dimethyl-1H-pyrazol-4-yl)sulfonyl]-8-azabicyclo[3.2.1]octane] | > 6.00 |  |
| Cc1ccccc1OC1CC2CCC(C1)N2S(=O)(=O)c1c(C)n[nH]c1C [Example 12, (1R,3r,5S)-3-(2-methylphenoxy)-8-[(3,5-dimethyl-1H-pyrazol-4-yl)sulfonyl]-8-azabicyclo[3.2.1]octane] | > 6.00 |  |
| Cc1n[nH]c(C)c1S(=O)(=O)N1C2CCC1CC(Oc1ccccc1)C2 [Example 02, (1R,3r,5S)-8-[(3,5-Dimethyl-1H-pyrazol-4-yl)sulfonyl]-3-phenoxy-8-azabicyclo[3.2.1]octane] | > 6.00 |  |
| Cc1ccc(OC2CC3CCC(C2)N3S(=O)(=O)c2c(C)n[nH]c2C)nn1 [Example 53, (1R,3r,5S)-8-[(3,5-Dimethyl-1H-pyrazol-4-yl)sulfonyl]-3-(6-methylpyridazin-3-yl)oxy-8-azabicyclo[3.2.1]octane] | < 5.70 |  |
| CCCCc1ccc(OC2CC3CCC(C2)N3S(=O)(=O)c2c(C)nn(C)c2C)cc1 [Example 14, (1R,3r,5S)-3-(4-Butylphenoxy)-8-(1,3,5-trimethylpyrazol-4-yl)sulfonyl-8-azabicyclo[3.2.1]octane] | > 6.00 |  |
| Cc1n[nH]c(C)c1S(=O)(=O)N1C2CCC1CC(Oc1cnccn1)C2 [Example 13, (1R,3r,5S)-8-[(3,5-Dimethyl-1H-pyrazol-4-yl)sulfonyl]-3-pyrazin-2-yloxy-8-azabicyclo[3.2.1]octane] | > 6.00 |  |
| Cc1n[nH]c(C)c1S(=O)(=O)N1C2CCC1CC(Oc1ccc(Cl)cc1)C2 [Example 39, (1R,3r,5S)-3-(4-Chloro-phenoxy)-8-[(3,5-dimethyl-1H-pyrazol-4-yl)sulfonyl]-8-azabicyclo[3.2.1]octane] | > 6.00 |  |
| Cc1ccccc1OC1CC2CCC(C1)N2S(=O)(=O)c1c(C)n[nH]c1C [Example 11, (1R,3s,5S)-3-(2-methylphenoxy)-8-[(3,5-dimethyl-1H-pyrazol-4-yl)sulfonyl]-8-azabicyclo[3.2.1]octane] | < 5.70 |  |
| CCCCc1ccc(OC2CC3CCC(C2)N3S(=O)(=O)c2cc(C)sc2C)cc1 [Example 16, (1R,3r,5S)-3-(4-Butylphenoxy)-8-[(2,5-dimethyl-3-thienyl)sulfonyl]-8-azabicyclo[3.2.1]octane] | < 5.70 |  |
| Cc1ccc(OC2CC3CCC(C2)N3S(=O)(=O)c2c(C)n[nH]c2C)nc1 [Example 27, (1R,3r,5S)-8-[(3,5-Dimethyl-1H-pyrazol-4-yl)sulfonyl]-3-[(5-methyl-2-pyridil)oxy]-8-azabicyclo[3.2.1]octane] | > 6.00 |  |
| Cc1n[nH]c(C)c1S(=O)(=O)N1C2COCC1CC(Oc1cnccn1)C2 [Example 47, (1R,3r,5S)-9-[(3,5-Dimethyl-1H-pyrazol-4-yl)sulfonyl]-7-pyrazin-2-yloxy-3-oxa-9-azabicyclo[3.3.1]nonane] | < 5.70 |  |
| Cc1n[nH]c(C)c1S(=O)(=O)N1C2CCC1CC(Oc1ccc(F)cc1)C2 [Example 42, (1R,3r,5S)-3-(4-Fluoro-phenoxy)-8-[(3,5-dimethyl-1H-pyrazol-4-yl)sulfonyl]-8-azabicyclo[3.2.1]octane] | > 6.00 |  |
| Cc1n[nH]c(C)c1S(=O)(=O)N1C2CCCC1CC(Oc1cnccn1)C2 [Example 45, (1R,3s,5S)-9-[(3,5-Dimethyl-1H-pyrazol-4-yl)sulfonyl]-3-(pyrazin-2-yloxy)-9-azabicyclo[3.3.1]nonane] | < 5.70 |  |
| Cc1cnc(OC2CC3CCC(C2)N3S(=O)(=O)c2c(C)n[nH]c2C)cn1 [Example 36, (1R,3r,5S)-8-[(3,5-Dimethyl-1H-pyrazol-4-yl)sulfonyl]-3-(5-methylpyrazin-2-yl)oxy-8-azabicyclo[3.2.1]octane] | > 6.00 |  |
